According to US20190328869A1, “IMMUNOTHERAPEUTIC PRODUCT AND MDSC MODULATOR COMBINATION THERAPY” (Transgene SA, priority 2016, published 2019):

Assays:
[1] = tested on: Adenovirus-specific T cells producing IFNγ; experiment: IFNγ-ELISpot, vector-specific T cell response (Ad-specific peptide FAL) in HBV-persistent mice; type: in vivo, C57BL/6J mice; conditions: splenocytes, day 76 post AAV2/8-HBV; sildenafil 20 mg/kg/day D31-59 or D48-76; AdTG18201 2×10^9 vp sc D36, 43, 50
Procedure: The capacity of splenocytes to produce IFNγ after different in vitro stimulations was measured by an IFNγ-ELISpot assay at day 76 post AAV2/8-HBV injection. Vector-specific T cell responses were assessed using the Ad-specific peptide FAL. Results are shown as the number of spots per 10^6 splenocytes. Each dot represents an individual mouse and thick line represents the mean value for each group (+/−SEM). The horizontal gray line represents the technical cutoff value (50 spots/10^6 cells) above which values are considered as positive T cell responses and which was defined as described in the Material and Methods. For groups with a positive T cell response, incidence of mice per group is indicated on the graph.
(§1) The HBV persistent mice used in the study were described by Dion et al. (2013, J Virol, 87(10):5554-63). […] This allows the analysis of HBV-specific viral parameters (HBsAg, HBeAg, HBcAg and viremia) as well as immunological read-outs (ICS, ELISpot or humoral immune responses). […]
IFNg-producing T cells were quantified by cytokine-specific ELISpot (enzyme linked immunospot) assay as previously described (Himoudi et al., 2002, J. Virol. 76: 12735). The number of spots (corresponding to the IFNg-producing T cells) in negative control wells were subtracted from the number of spots detected in experimental wells containing HBV peptides. […]

HBsAg (AAV2/8-HBV) = experiment: Serum HBsAg level by ELISA in HBV-persistent mice; type: in vivo, C57BL/6J mice; conditions: monotherapy; sildenafil 5, 20 or 80 mg/kg/day D31-59; AdTG18201 D36, 43, 50; up to day 104
Procedure: Graph A illustrates the median level of HBsAg determined in the serum of groups of 10 mice (groups a to h) treated with sildenafil at 5 mg/kg/day (group b), at 20 mg/kg/day (group c), or at 80 mg/kg/day (group d) alone, or with AdTG18201 (group e) alone or with a combination of AdTG18201 and sildenafil (at 5, 20, or 80 mg/kg/day, groups f, g and h, respectively). The control group a is untreated. The Y-axis indicates the median HBsAg level (ng/mL) for each group and the X-axis the time (number of days post-AAV2/8-HBV injection). Graph B illustrates the median level of HBV DNA determined in the serum of the same groups of mice by PCR. The Y-axis indicates the median HBV DNA level (copies/mL) for each group of animals and the X-axis the time (number of days post-AAV2/8-HBV injection). […]
as §1
HBsAg levels in mouse serum were assessed using a commercial ELISA kit (Monolisa HBsAg Ultra, Bio-Rad, France) according to the manufacturer's protocol, except that a standard curve was established, to render the test quantitative. […]

Q: What does the source list for `CCCc1nn(C)c2c(=O)nc(-c3cc(S(=O)(=O)N4CCN(C)CC4)ccc3OCC)[nH]c12` [sildenafil, 1-[[3-(4,7-dihydro-1-methyl-7-oxo-3-propyl-1H-pyrazolo[4,3-d]pyrimidin-5-yl)-4-ethoxyphenyl]sulfonyl]-4-methylpiperazine]?
A: IFNg-response to the Ad-specific peptide FAL [1]: negative; HBsAg median level, course (HBsAg (AAV2/8-HBV)): no significant HBsAg decrease
